Data taken from the supplement of paper PMC6045584.

Assays:
Assay in all cases: area under dose-response curve of surviving fraction (unscaled, Aref=0) (surviving fraction x log10(nM)); higher = more resistant
Conditions in all cases: exposure time: 5 days; dose range 0.5-1000 nM
XAV-939 = compound: Oc1nc(-c2ccc(C(F)(F)F)cc2)nc2c1CSCC2 [XAV-939]
How it was run: (§1)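 Three screens per tumour cell line were run in 384-well plates at eight inhibitor concentrations from 0.5 to 1000 nM over five days. Surviving fractions, from CellTiter-Glo luminescence normalised to DMSO-only wells, were fitted with 3-parameter logistic curves in the drc R package. The reported area under the curve is the unscaled activity area. It spans log10 dose, and Aref is 0.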

FORETINIB = compound: COc1cc2c(Oc3ccc(NC(=O)C4(C(=O)Nc5ccc(F)cc5)CC4)cc3F)ccnc2cc1OCCCN1CCOCC1 [FORETINIB]
How it was run: as §1

DASATINIB = compound: Cc1nc(Nc2ncc(C(=O)Nc3c(C)cccc3Cl)s2)cc(N2CCN(CCO)CC2)n1 [DASATINIB]
How it was run: as §1

[1] = compound: CCn1c(C(=O)N(C2CC2)C2CC2)cc2c3c(ncn3C)c(Nc3cc(C)n(C)n3)nc21
How it was run: as §1

[2] = compound: CNCc1ccc(-c2[nH]c3cc(F)cc4c3c2CCNC4=O)cc1
How it was run: as §1

CRIZOTINIB = compound: C[C@@H](Oc1cc(-c2cnn(C3CCNCC3)c2)cnc1N)c1c(Cl)ccc(F)c1Cl [CRIZOTINIB]
How it was run: as §1

ABIRATERONE = compound: C[C@]12CC[C@H](O)CC1=CC[C@@H]1[C@@H]2CC[C@]2(C)C(c3cccnc3)=CC[C@@H]12 [ABIRATERONE]
How it was run: as §1

MLN-4924 = compound: NS(=O)(=O)OC[C@@H]1C[C@@H](n2ccc3c(N[C@H]4CCc5ccccc54)ncnc32)C[C@@H]1O [MLN-4924]
How it was run: as §1

[3] = compound: COc1cc2ncnc(Nc3ccc(F)c(Cl)c3)c2cc1NC(=O)/C=C/CN1CCCCC1
How it was run: as §1

TEMOZOLOMIDE = compound: Cn1nnc2c(C(N)=O)ncn2c1=O [TEMOZOLOMIDE]
How it was run: as §1

SORAFENIB = compound: CNC(=O)c1cc(Oc2ccc(NC(=O)Nc3ccc(Cl)c(C(F)(F)F)c3)cc2)ccn1 [SORAFENIB]
How it was run: as §1

[4] = compound: C[C@@H](Oc1cc(-c2cnn(C3CCNCC3)c2)cnc1N)c1c(Cl)ccc(F)c1Cl
How it was run: as §1

OLAPARIB = compound: O=C(c1cc(Cc2n[nH]c(=O)c3ccccc23)ccc1F)N1CCN(C(=O)C2CC2)CC1 [OLAPARIB]
How it was run: as §1

Test System: HS57T LUNG
- area under dose-response curve (XAV-939): 3.24
- area under dose-response curve (FORETINIB): 3.04
- area under dose-response curve (DASATINIB): 1.87
- area under dose-response curve [1]: 3.21
- area under dose-response curve [2]: 3.17
- area under dose-response curve (CRIZOTINIB): 3.12
- area under dose-response curve (ABIRATERONE): 3.71
- area under dose-response curve (MLN-4924): 2.38
- area under dose-response curve [3]: 3.17
- area under dose-response curve (TEMOZOLOMIDE): 3.27
- area under dose-response curve (SORAFENIB): 3.44
- area under dose-response curve [4]: 2.97
- area under dose-response curve (OLAPARIB): 3.54
